Measurements reported in ChEMBL document CHEMBL1145354, “Benzopyran sulfonamides as KV1.5 potassium channel blockers” (Bioorg Med Chem Lett, 2007).

Experiments:
[1] = biological target: Potassium voltage-gated channel subfamily A member 5 (Homo sapiens, UniProt P22460); test: Inhibition of human Kv1.5 channel expressed in mouse L929 cells; format: cell-based
hERG (KCNH2) = hERG (KCNH2) (Homo sapiens, UniProt Q12809); test: Inhibition of human ERG expressed in human embryonic kidney cells at 10 uM; format: cell-based; conditions: human embryonic kidney cells expressing human ERG
Sequence of hERG (KCNH2) (Q12809 whole entry): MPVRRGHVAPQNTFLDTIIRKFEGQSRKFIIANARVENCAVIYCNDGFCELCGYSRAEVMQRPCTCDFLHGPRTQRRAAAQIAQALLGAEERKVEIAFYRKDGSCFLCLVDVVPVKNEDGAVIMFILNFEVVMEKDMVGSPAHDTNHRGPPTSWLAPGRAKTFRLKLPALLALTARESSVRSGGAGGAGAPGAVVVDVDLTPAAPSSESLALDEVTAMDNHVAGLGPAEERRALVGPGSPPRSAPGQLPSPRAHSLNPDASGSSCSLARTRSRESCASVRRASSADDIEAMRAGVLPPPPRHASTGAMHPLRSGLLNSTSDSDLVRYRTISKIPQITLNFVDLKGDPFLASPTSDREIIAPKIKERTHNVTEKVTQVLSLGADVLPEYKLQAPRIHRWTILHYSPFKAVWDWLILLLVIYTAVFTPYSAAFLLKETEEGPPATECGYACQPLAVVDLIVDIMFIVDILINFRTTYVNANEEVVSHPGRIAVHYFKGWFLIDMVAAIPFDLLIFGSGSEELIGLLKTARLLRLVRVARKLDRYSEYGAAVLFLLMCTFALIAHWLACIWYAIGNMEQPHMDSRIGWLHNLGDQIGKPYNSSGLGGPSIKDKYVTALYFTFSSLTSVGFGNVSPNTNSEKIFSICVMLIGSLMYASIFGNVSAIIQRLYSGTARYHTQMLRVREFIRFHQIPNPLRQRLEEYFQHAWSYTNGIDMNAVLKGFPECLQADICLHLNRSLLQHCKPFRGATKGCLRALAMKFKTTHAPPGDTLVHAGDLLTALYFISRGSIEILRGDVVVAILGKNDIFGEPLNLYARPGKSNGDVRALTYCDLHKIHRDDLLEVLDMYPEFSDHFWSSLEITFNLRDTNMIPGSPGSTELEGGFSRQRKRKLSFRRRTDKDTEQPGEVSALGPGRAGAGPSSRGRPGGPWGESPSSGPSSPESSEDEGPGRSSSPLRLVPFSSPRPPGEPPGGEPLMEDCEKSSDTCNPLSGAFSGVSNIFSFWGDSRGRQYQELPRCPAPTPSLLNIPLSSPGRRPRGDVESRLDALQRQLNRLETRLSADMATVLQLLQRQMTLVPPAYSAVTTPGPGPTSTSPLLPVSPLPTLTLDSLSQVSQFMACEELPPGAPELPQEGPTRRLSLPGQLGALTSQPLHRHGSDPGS

Sequence of Potassium voltage-gated channel subfamily A member 5 (P22460 whole entry): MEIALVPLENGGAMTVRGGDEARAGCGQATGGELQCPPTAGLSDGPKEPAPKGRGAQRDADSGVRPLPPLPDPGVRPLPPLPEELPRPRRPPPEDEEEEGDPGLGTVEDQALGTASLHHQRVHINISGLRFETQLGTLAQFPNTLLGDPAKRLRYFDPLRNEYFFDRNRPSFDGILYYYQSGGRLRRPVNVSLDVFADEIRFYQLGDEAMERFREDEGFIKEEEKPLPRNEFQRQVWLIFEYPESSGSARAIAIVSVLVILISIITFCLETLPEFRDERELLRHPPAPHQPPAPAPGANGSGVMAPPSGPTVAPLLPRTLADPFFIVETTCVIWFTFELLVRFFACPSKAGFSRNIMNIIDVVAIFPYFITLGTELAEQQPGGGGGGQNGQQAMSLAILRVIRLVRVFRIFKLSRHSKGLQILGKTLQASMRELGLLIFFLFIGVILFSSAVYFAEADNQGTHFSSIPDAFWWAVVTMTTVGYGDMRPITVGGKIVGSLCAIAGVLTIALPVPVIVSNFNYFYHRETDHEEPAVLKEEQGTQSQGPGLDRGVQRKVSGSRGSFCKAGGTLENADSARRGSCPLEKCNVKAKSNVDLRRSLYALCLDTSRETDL

Question: Which IC50 [1] does the source give for `CCc1ccc(S(=O)(=O)N[C@@H]2c3cc(C(=O)N(CC)Cc4ccccc4F)ccc3OC(C)(C)[C@H]2O)cc1` here?
Answer: The IC50 was 170 nM.

Question: What about the inhibition at 10 µM (hERG (KCNH2)) of the same molecule?
Answer: Its inhibition at 10 µM is 7%.

Question: For `CCc1ccc(S(=O)(=O)N[C@@H]2c3cc(C(=O)NCCc4ccccc4)ccc3OC(C)(C)[C@H]2O)cc1`, which IC50 [1] is on record?
Answer: The IC50 was 260 nM.

Question: Which results are given for `CCc1ccc(S(=O)(=O)N[C@@H]2c3cc(C(=O)N(CC)CCNc4ccccc4)ccc3OC(C)(C)[C@H]2O)cc1`?
Answer: IC50 [1]: 77 nM; inhibition at 10 µM (hERG (KCNH2)): 39%

Question: How did the IC50 [1] turn out when `CCc1ccc(S(=O)(=O)N[C@@H]2c3cc(C(=O)NCCc4ccccn4)ccc3OC(C)(C)[C@H]2O)cc1` was run?
Answer: The IC50 was > 1000 nM.

Question: How did the IC50 [1] turn out when `CC1(C)Oc2ccc(C(=O)NCCc3ccccc3)cc2[C@@H](NS(=O)(=O)c2ccccc2)[C@@H]1O` was run?
Answer: The IC50 was > 1000 nM.

Question: How did the IC50 [1] turn out when `Cc1ccc(S(=O)(=O)N[C@@H]2c3cc(C(=O)NCCc4ccccc4)ccc3OC(C)(C)[C@H]2O)cc1` was run?
Answer: Its IC50 is 400 nM.

Question: With `Cc1cccc(S(=O)(=O)N[C@@H]2c3cc(C(=O)NCCc4ccccc4)ccc3OC(C)(C)[C@H]2O)c1` as the molecule, how does the IC50 [1] read?
Answer: The IC50 was 340 nM.

Question: `CC1(C)Oc2ccc(C(=O)NCCc3ccccc3)cc2[C@@H](NS(=O)(=O)c2ccccc2OC(F)(F)F)[C@@H]1O` was tested. Which IC50 [1] did it give?
Answer: The IC50 was 150 nM.

Question: For `CCc1ccc(S(=O)(=O)N[C@H]2c3cc(C(=O)NCCc4ccccc4)ccc3OC(C)(C)[C@@H]2O)cc1`, which IC50 [1] is on record?
Answer: Its IC50 is > 1000 nM.

Question: With `CCc1ccc(S(=O)(=O)N[C@H]2c3cc(C(=O)N4CCC[C@@H]4CNc4c(C)cccc4C)ccc3OC(C)(C)[C@@H]2O)cc1` as the molecule, how does the IC50 [1] read?
Answer: Its IC50 is 89 nM.

Question: Which IC50 [1] does the source give for `CCc1ccc(S(=O)(=O)N[C@H]2CC(C)(C)Oc3ccc(C(=O)N4CCC[C@H]4CNc4c(C)cccc4C)cc32)cc1` here?
Answer: Its IC50 is 110 nM.

Question: What about the inhibition at 10 µM (hERG (KCNH2)) of the same molecule?
Answer: The inhibition at 10 µM was 51%.

Question: With `CCc1ccc(S(=O)(=O)N[C@@H]2c3cc(C(=O)N(CC)[C@@H]4CCN(Cc5ccccc5)C4)ccc3OC(C)(C)[C@H]2O)cc1` as the molecule, how does the IC50 [1] read?
Answer: Its IC50 is 210 nM.

Question: For `CCc1ccc(S(=O)(=O)N[C@@H]2c3cc(C(=N)NCCc4ccccc4)ccc3OC(C)(C)[C@H]2O)cc1`, which IC50 [1] is on record?
Answer: Its IC50 is > 10000 nM.

Question: With `CCc1ccc(S(=O)(=O)N(Cc2ccccn2)[C@@H]2c3cc(C(=O)NCCc4ccccc4)ccc3OC(C)(C)[C@H]2O)cc1` as the molecule, how does the IC50 [1] read?
Answer: The IC50 was 120 nM.

Question: With `CCc1ccc(S(=O)(=O)N[C@@H]2c3cc(C(=O)N4CCC[C@@H]4CNc4c(C)cccc4C)ccc3OC(C)(C)[C@H]2O)cc1` as the molecule, how does the IC50 [1] read?
Answer: The IC50 was 130 nM.

Question: For `CC1(C)Oc2ccc(C(=O)NCCc3ccccc3)cc2[C@@H](NS(=O)(=O)c2ccc(F)cc2)[C@@H]1O`, which IC50 [1] is on record?
Answer: The IC50 was > 1000 nM.

Question: `COc1ccc(S(=O)(=O)N[C@@H]2c3cc(C(=O)NCCc4ccccc4)ccc3OC(C)(C)[C@H]2O)cc1` was tested. Which IC50 [1] did it give?
Answer: The IC50 was > 1000 nM.

Question: For `CCc1ccc(S(=O)(=O)N(Cc2cccnc2)[C@@H]2c3cc(C(=O)NCCc4ccccc4)ccc3OC(C)(C)[C@H]2O)cc1`, which IC50 [1] is on record?
Answer: Its IC50 is 130 nM.

Question: What about the inhibition at 10 µM (hERG (KCNH2)) of the same molecule?
Answer: Its inhibition at 10 µM is 61%.

Question: Which IC50 [1] does the source give for `CCCCN([C@@H]1c2cc(C(=O)NCCc3ccccc3)ccc2OC(C)(C)[C@H]1O)S(=O)(=O)c1ccc(CC)cc1` here?
Answer: Its IC50 is 57 nM.

Question: What about the inhibition at 10 µM (hERG (KCNH2)) of the same molecule?
Answer: The inhibition at 10 µM was 35%.

Question: With `CCc1ccc(S(=O)(=O)N(Cc2cnc[nH]2)[C@@H]2c3cc(C(=O)NCCc4ccccc4)ccc3OC(C)(C)[C@H]2O)cc1` as the molecule, how does the IC50 [1] read?
Answer: The IC50 was 280 nM.

Question: `CCc1ccc(S(=O)(=O)N(CC(C)(C)C)[C@@H]2c3cc(C(=O)NCCc4ccccc4)ccc3OC(C)(C)[C@H]2O)cc1` was tested. Which IC50 [1] did it give?
Answer: The IC50 was 120 nM.

Question: What does the source list for `CCc1ccc(S(=O)(=O)N[C@@H]2c3cc(NC(=O)c4cccc(OC)c4)ccc3OC(C)(C)[C@H]2O)cc1`?
Answer: IC50 [1]: 290 nM; inhibition at 10 µM (hERG (KCNH2)): 40%

Question: How did the IC50 [1] turn out when `CCc1ccc(S(=O)(=O)N[C@@H]2c3cc(C(=O)Nc4cccc(OC)c4)ccc3OC(C)(C)[C@H]2O)cc1` was run?
Answer: Its IC50 is > 10000 nM.

Question: How did the IC50 [1] turn out when `CCc1ccc(S(=O)(=O)N[C@@H]2c3cc(C(=O)Nc4ccccc4)ccc3OC(C)(C)[C@H]2O)cc1` was run?
Answer: Its IC50 is 260 nM.

Question: For `CCc1ccc(S(=O)(=O)N[C@@H]2c3cc(NC(=O)c4cccc(OC)c4)ccc3C[C@H]2O)cc1`, which inhibition at 10 µM (hERG (KCNH2)) is on record?
Answer: The inhibition at 10 µM was 21%.

Question: Which IC50 [1] does the source give for `CCc1ccc(S(=O)(=O)N[C@@H]2c3cc(CNCCc4ccccc4)ccc3OC(C)(C)[C@H]2O)cc1` here?
Answer: Its IC50 is 240 nM.

Question: For `CCc1ccc(S(=O)(=O)N[C@@H]2c3cc(C(=O)N4CCC[C@H]4CNc4c(C)cccc4C)ccc3OC(C)(C)[C@H]2O)cc1`, which IC50 [1] is on record?
Answer: Its IC50 is 120 nM.

Question: And the inhibition at 10 µM (hERG (KCNH2))?
Answer: The inhibition at 10 µM was 9%.

Question: `CCc1ccc(S(=O)(=O)N[C@@H]2c3cc(C(=O)N(C)c4ccccc4)ccc3OC(C)(C)[C@H]2O)cc1` was tested. Which IC50 [1] did it give?
Answer: Its IC50 is 280 nM.

Question: Which results are given for `CCc1ccc(S(=O)(=O)N[C@@H]2c3cc(C(=O)n4nc(-c5ccccc5)cc4N)ccc3OC(C)(C)[C@H]2O)cc1`?
Answer: IC50 [1]: 79 nM; inhibition at 10 µM (hERG (KCNH2)): 47%

Question: `CCc1ccc(S(=O)(=O)N[C@@H]2c3cc(C(=O)N(CC)[C@H]4CCN(Cc5ccccc5)C4)ccc3OC(C)(C)[C@H]2O)cc1` was tested. Which IC50 [1] did it give?
Answer: The IC50 was 170 nM.

Question: How did the IC50 [1] turn out when `CCc1ccc(S(=O)(=O)N[C@H]2c3cc(C(=O)N4CCC[C@H]4CNc4c(C)cccc4C)ccc3OC(C)(C)[C@@H]2O)cc1` was run?
Answer: Its IC50 is 260 nM.

Question: How did the IC50 [1] turn out when `CCc1ccc(S(=O)(=O)N[C@H]2c3cc(C(=O)N(CC)[C@@H]4CCN(Cc5ccccc5)C4)ccc3OC(C)(C)[C@@H]2O)cc1` was run?
Answer: Its IC50 is 220 nM.

Question: How did the IC50 [1] turn out when `CCc1ccc(S(=O)(=O)N[C@@H]2c3cc(C(=O)NCCc4c[nH]cn4)ccc3OC(C)(C)[C@H]2O)cc1` was run?
Answer: Its IC50 is > 10000 nM.

Question: `CC1(C)Oc2ccc(C(=O)NCCc3ccccc3)cc2[C@@H](NS(=O)(=O)c2ccc(C(F)(F)F)cc2)[C@@H]1O` was tested. Which IC50 [1] did it give?
Answer: Its IC50 is 200 nM.

Question: How did the IC50 [1] turn out when `CCc1ccc(S(=O)(=O)N[C@@H]2c3cc(S(=O)(=O)NCCc4ccccc4)ccc3OC(C)(C)[C@H]2O)cc1` was run?
Answer: Its IC50 is 510 nM.

Question: How did the IC50 [1] turn out when `CC1(C)Oc2ccc(C(=O)NCCc3ccccc3)cc2[C@@H](NS(=O)(=O)c2ccc([N+](=O)[O-])cc2)[C@@H]1O` was run?
Answer: Its IC50 is > 1000 nM.

Question: For `CCc1ccc(S(=O)(=O)N(CC(C)C)[C@@H]2c3cc(C(=O)NCCc4ccccc4)ccc3OC(C)(C)[C@H]2O)cc1`, which IC50 [1] is on record?
Answer: Its IC50 is 320 nM.

Question: Which IC50 [1] does the source give for `CCc1ccc(S(=O)(=O)N[C@H]2c3cc(C(=O)N(CC)[C@H]4CCN(Cc5ccccc5)C4)ccc3OC(C)(C)[C@@H]2O)cc1` here?
Answer: Its IC50 is 200 nM.

Question: What about the inhibition at 10 µM (hERG (KCNH2)) of the same molecule?
Answer: Its inhibition at 10 µM is 80%.
